Test results published in patent US8343983B2, “Substituted pyrazolo-pyrimidine compounds” (ArQule, Inc., priority 2009, dated 2013).
Read-outs that look alike come from different tables or passages of the source.

Tested on: cancer cells
Assay: MTS assay: inhibition of cell growth (formazan absorbance at 492 nm after 72 hours with test compound)
Assay type: cell-based
Settings: inhibition class
Description: Cells were maintained at 37° C., 5% CO2 in DMEM media supplemented with 1% fetal bovine serum, penicillin/streptomycin and fungizone (Invitrogen). Cells were seeded into 96-well tissue culture plates at 3000 per well and cultured at 37° C. for 18 hours. Test compounds were dissolved and diluted to 300× in DMSO then diluted 1:40 in DMEM. Cells were incubated with test compounds for 72 hours followed by incubation with tetrazolium compound (3-(4,5-dimethylthiazol-2-yl)-5-(3-carboxymethoxyphenyl)-2-(4-sulfophenyl)-2H-tetrazolium, inner salt; MTS) and the electron coupling reagent, phenazine methosulfate (PMS) for 4 hours. […] The ability of compounds to inhibit cell growth in this assay is correlated with the reduction of dehydrogenase enzyme activity found in metabolically active cells. The measurement of the absorbance of the formazan was assessed using an ENVISION™ (Perkin Elmer) microplate reader at 492 nm. The calculated IC50 value is the concentration of the test compound that causes a 50% decrease in the absorbance. […] A=>79% inhibition, B=>50 to 79% inhibition, C=<50% inhibition.

[1] = Homo sapiens, DLD-1 cells, read-out: DLD-1, MTS 72 hours at 10 uM
[2] = Homo sapiens, KATO III cells, read-out: KATO III, MTS 72 hours at 10 uM
[3] = Homo sapiens, MDA-MB-231 cells, read-out: MDA-MB-231, MTS 72 hours at 10 uM
[4] = Homo sapiens, NCI-H1299 cells, read-out: NCI-H1299, MTS 72 hours at 10 uM
[5] = Homo sapiens, PC-3 cells, read-out: PC-3, MTS 72 hours at 10 uM
[6] = PACA-2 cells, read-out: PACA-2, MTS 72 hours at 10 uM

SMILES	inhibition at 10 µM [1] [%]	inhibition at 10 µM [2] [%]	inhibition at 10 µM [3] [%]	inhibition at 10 µM [4] [%]	inhibition at 10 µM [5] [%]	inhibition at 10 µM [6] [%]
CSc1nc2c3c(n[nH]c3n1)CCN2Cc1ccccc1 [Compound 1, 6-benzyl-4-(methylthio)-2,6,7,8-tetrahydro-1,2,3,5,6-pentaazaacenaphthylene]	< 50	< 50	< 50	< 50	< 50	< 50
CS(=O)(=O)c1nc2c3c(n[nH]c3n1)CCN2Cc1ccccc1 [Compound 2, 6-benzyl-4-(methylsulfonyl)-2,6,7,8-tetrahydro-1,2,3,5,6-pentaazaacenaphthylene]	< 50	< 50	< 50	< 50	< 50	< 50
FC(F)(F)c1ccnc(N2CCN(c3nc4c5c(n[nH]c5n3)CCN4Cc3ccccc3)CC2)n1 [Compound 4, 6-benzyl-4-{4-[4-(trifluoromethyl)pyrimidin-2-yl]piperazin-1-yl}-2,6,7,8-tetrahydro-1,2,3,5,6-pentaazaacenaphthylene]	50 to 79	< 50	> 79	> 79	> 79	< 50
Fc1ccccc1CN1CCN(c2nc3c4c(n[nH]c4n2)CCN3Cc2ccccc2)CC1 [Compound 5, 6-benzyl-4-[4-(2-fluorobenzyl)piperazin-1-yl]-2,6,7,8-tetrahydro-1,2,3,5,6-pentaazaacenaphthylene]	< 50	50 to 79	> 79	< 50	> 79	< 50
CN(Cc1cccc2ccccc12)c1nc2c3c(n[nH]c3n1)CCN2Cc1ccccc1 [Compound 6, 6-benzyl-N-methyl-N-(1-naphthylmethyl)-2,6,7,8-tetrahydro-1,2,3,5,6-pentaazaacenaphthylen-4-amine]	< 50	< 50	< 50	< 50	< 50	< 50
c1ccc(CN2CCc3n[nH]c4nc(NCc5cccc6ccccc56)nc2c34)cc1 [Compound 7, 6-benzyl-N-(1-naphthylmethyl)-2,6,7,8-tetrahydro-1,2,3,5,6-pentaazaacenaphthylen-4-amine]	< 50	> 79	> 79	< 50	> 79	< 50
N#Cc1cccnc1N1CCN(c2nc3c4c(n[nH]c4n2)CCN3Cc2ccccc2)CC1 [Compound 8, 2-[4-(6-benzyl-2,6,7,8-tetrahydro-1,2,3,5,6-pentaazaacenaphthylen-4-yl)piperazin-1-yl]nicotinonitrile]	< 50	< 50	< 50	< 50	< 50	< 50
COc1cccc(N2CCN(c3nc4c5c(n[nH]c5n3)CCN4Cc3ccccc3)CC2)c1 [Compound 9, 6-benzyl-4-[4-(3-methoxyphenyl)piperazin-1-yl]-2,6,7,8-tetrahydro-1,2,3,5,6-pentaazaacenaphthylene]	< 50	< 50	> 79	< 50	> 79	< 50
c1ccc(CN2CCc3n[nH]c4nc(NCc5cccnc5)nc2c34)cc1 [Compound 10, 6-benzyl-N-(pyridin-3-ylmethyl)-2,6,7,8-tetrahydro-1,2,3,5,6-pentaazaacenaphthylen-4-amine]	< 50	< 50	< 50	< 50	< 50	< 50
COc1cc(CCNc2nc3c4c(n[nH]c4n2)CCN3Cc2ccccc2)cc(OC)c1 [Compound 11, 6-benzyl-N-[2-(3,5-dimethoxyphenyl)ethyl]-2,6,7,8-tetrahydro-1,2,3,5,6-pentaazaacenaphthylen-4-amine]	50 to 79	> 79	< 50	> 79	< 50	50 to 79
Clc1cccc(CCNc2nc3c4c(n[nH]c4n2)CCN3Cc2ccccc2)c1 [Compound 12, 6-benzyl-N-[2-(3-chlorophenyl)ethyl]-2,6,7,8-tetrahydro-1,2,3,5,6-pentaazaacenaphthylen-4-amine]	50 to 79	50 to 79	< 50	50 to 79	< 50	< 50
c1ccc(CN2CCc3n[nH]c4nc(N5CCN(c6ncccn6)CC5)nc2c34)cc1 [Compound 13, 6-benzyl-4-(4-pyrimidin-2-ylpiperazin-1-yl)-2,6,7,8-tetrahydro-1,2,3,5,6-pentaazaacenaphthylene]	< 50	< 50	< 50	< 50	< 50	< 50
COc1ccc(CCN(C)c2nc3c4c(n[nH]c4n2)CCN3Cc2ccccc2)cc1OC [Compound 14, 6-benzyl-N-[2-(3,4-dimethoxyphenyl)ethyl]-N-methyl-2,6,7,8-tetrahydro-1,2,3,5,6-pentaazaacenaphthylen-4-amine]	< 50	< 50	< 50	< 50	< 50	< 50
c1ccc(CN2CCc3n[nH]c4nc(N5CCN(Cc6ccc7c(c6)OCO7)CC5)nc2c34)cc1 [Compound 15, 4-[4-(1,3-benzodioxol-5-ylmethyl)piperazin-1-yl]-6-benzyl-2,6,7,8-tetrahydro-1,2,3,5,6-pentaazaacenaphthylene]	< 50	< 50	< 50	< 50	< 50	< 50
Clc1cccc(Oc2ccccc2)c1CNc1nc2c3c(n[nH]c3n1)CCN2Cc1ccccc1 [Compound 16, 6-benzyl-N-(2-chloro-6-phenoxybenzyl)-2,6,7,8-tetrahydro-1,2,3,5,6-pentaazaacenaphthylen-4-amine]	< 50	< 50	< 50	50 to 79	50 to 79	< 50
c1ccc(CN2CCc3n[nH]c4nc(NC5Cc6ccccc6C5)nc2c34)cc1 [Compound 17, 6-benzyl-N-(2,3-dihydro-1H-inden-2-yl)-2,6,7,8-tetrahydro-1,2,3,5,6-pentaazaacenaphthylen-4-amine]	50 to 79	50 to 79	< 50	50 to 79	< 50	50 to 79
COC[C@H](C)Nc1nc2c3c(n[nH]c3n1)CCN2Cc1ccccc1 [Compound 18, 6-benzyl-N-[(1S)-2-methoxy-1-methylethyl]-2,6,7,8-tetrahydro-1,2,3,5,6-pentaazaacenaphthylen-4-amine]	< 50	< 50	< 50	< 50	< 50	< 50
c1ccc(CN2CCc3n[nH]c4nc(N5CCc6ccccc6C5)nc2c34)cc1 [Compound 19, 6-benzyl-4-(3,4-dihydroisoquinolin-2(1H)-yl)-2,6,7,8-tetrahydro-1,2,3,5,6-pentaazaacenaphthylene]	< 50	< 50	50 to 79	< 50	50 to 79	< 50
COc1cc(OC)nc(CN2CCN(c3nc4c5c(n[nH]c5n3)CCN4Cc3ccccc3)CC2)n1 [Compound 20, 6-benzyl-4-{4-[(4,6-dimethoxypyrimidin-2-yl)methyl]piperazin-1-yl}-2,6,7,8-tetrahydro-1,2,3,5,6-pentaazaacenaphthylene]	< 50	< 50	< 50	< 50	< 50	< 50
Cn1c(CNc2nc3c4c(n[nH]c4n2)CCN3Cc2ccccc2)nc2ccccc21 [Compound 21, 6-benzyl-N-[(1-methyl-1H-benzimidazol-2-yl)methyl]-2,6,7,8-tetrahydro-1,2,3,5,6-pentaazaacenaphthylen-4-amine]	< 50	50 to 79	< 50	< 50	< 50	< 50
Fc1ccccc1CCNc1nc2c3c(n[nH]c3n1)CCN2Cc1ccccc1 [Compound 22, 6-benzyl-N-[2-(2-fluorophenyl)ethyl]-2,6,7,8-tetrahydro-1,2,3,5,6-pentaazaacenaphthylen-4-amine]	< 50	< 50	< 50	< 50	< 50	< 50
